Experimental data published in PubChem BioAssay AID248 (DTP/NCI, 2004).
“And” between values parts separate entries of the source, which are not always exact repeats. Identical values can stand only once. Inconclusive results and toxic doses are left out. Cut-off read from the data, not from the text of the source: active = T/C of 150% or more; inactive = T/C below 125%.

System: L1210 leukemia ip in BDF1 mice, survival T/C
Assay: NCI In Vivo Anticancer Drug Screen. Data for tumor model L1210 Leukemia (intraperitoneal) in B6D2F1 (BDF1) mice
Conditions: endpoint: mean survival time, higher = longer survival
In short: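 Mice bearing the transplanted tumor received compound or vehicle. Survival of the treated group was divided by that of the vehicle-treated control group to give the ratio.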

[1] = dose: 50.0 mg/kg/injection, schedule: Q04DX003 (ip), vehicle: saline
[2] = dose: 100.0 mg/kg/injection, schedule: Q04DX003 (ip), vehicle: saline
[3] = dose: 100.0 mg/kg/injection, schedule: Q01DX009 (ip), vehicle: Klucel (hydroxypropylcellulose) (HPC)
[4] = dose: 200.0 mg/kg/injection, schedule: Q01DX009 (ip), vehicle: Klucel (hydroxypropylcellulose) (HPC)
[5] = dose: 100.0 mg/kg/injection, schedule: Q04DX003 (ip), vehicle: Klucel (hydroxypropylcellulose) (HPC)
[6] = dose: 400.0 mg/kg/injection, schedule: Q01DX009 (ip), vehicle: Klucel (hydroxypropylcellulose) (HPC)
[7] = dose: 200.0 mg/kg/injection, schedule: Q01DX009 (ip), vehicle: other

Measured: T/C

O=C1C=CC(=C(Br)Br)O1
inactive: dose: 12.5 mg/kg/injection, schedule: Q04DX003 (ip), vehicle: saline with Tween-80 92 % of control | dose: 12.5 mg/kg/injection, schedule: Q04DX003 (ip), vehicle: saline 97 % of control | dose: 25.0 mg/kg/injection, schedule: Q04DX003 (ip), vehicle: saline with Tween-80 103 % of control | dose: 25.0 mg/kg/injection, schedule: Q04DX003 (ip), vehicle: saline 95 % of control | [1] 92 % of control | [2] 98 % of control

O=c1cc(O)c2ccccc2o1
inactive: dose: 50.0 mg/kg/injection, schedule: Q01DX009 (ip), vehicle: Klucel (hydroxypropylcellulose) (HPC) 104 % of control | [3] 93 % of control | [4] 90 % of control

O=C(COc1cccc(Cl)c1)Nc1cccc(S(=O)(=O)O)c1 (tested in a mixture with another compound)
inactive: dose: 100.0 mg/kg/injection, schedule: Q01DX001 (ip), vehicle: Klucel (hydroxypropylcellulose) (HPC) 100 % of control | dose: 200.0 mg/kg/injection, schedule: Q01DX001 (ip), vehicle: Klucel (hydroxypropylcellulose) (HPC) 99 % of control | dose: 400.0 mg/kg/injection, schedule: Q01DX001 (ip), vehicle: Klucel (hydroxypropylcellulose) (HPC) 87 % of control

CN1CSC(=S)N(C)C1
inactive: dose: 25.0 mg/kg/injection, schedule: Q04DX003 (ip), vehicle: Klucel (hydroxypropylcellulose) (HPC) 95 % of control | dose: 50.0 mg/kg/injection, schedule: Q04DX003 (ip), vehicle: Klucel (hydroxypropylcellulose) (HPC) 95 % of control | [5] 95 % of control and 101 % of control

CCOC(=O)C1(C(=O)OCC)NC(=O)CC1c1ccccc1 (configuration not stated)
inactive: [3] 94 % of control | [5] 92 % of control | [4] 101 % of control | dose: 200.0 mg/kg/injection, schedule: Q04DX003 (ip), vehicle: Klucel (hydroxypropylcellulose) (HPC) 100 % of control | [6] 92 % of control | dose: 400.0 mg/kg/injection, schedule: Q04DX003 (ip), vehicle: Klucel (hydroxypropylcellulose) (HPC) 105 % of control

CC(=Nc1cccc2ccccc12)c1c(O)cc(C)oc1=O
inactive: [3] 100 % of control | dose: 100.0 mg/kg/injection, schedule: Q04DX002 (ip), vehicle: Klucel (hydroxypropylcellulose) (HPC) 98 % of control | [4] 95 % of control | dose: 200.0 mg/kg/injection, schedule: Q04DX002 (ip), vehicle: Klucel (hydroxypropylcellulose) (HPC) 98 % of control | [6] 92 % of control | dose: 400.0 mg/kg/injection, schedule: Q04DX002 (ip), vehicle: Klucel (hydroxypropylcellulose) (HPC) 95 % of control

COC(=O)c1ccc(O)c(C(=O)OC)c1
inactive: dose: 100.0 mg/kg/injection, schedule: Q01DX001 (ip), vehicle: carboxymethylcellulose (CMC) 92 % of control | dose: 200.0 mg/kg/injection, schedule: Q01DX001 (ip), vehicle: carboxymethylcellulose (CMC) 97 % of control | dose: 400.0 mg/kg/injection, schedule: Q01DX001 (ip), vehicle: carboxymethylcellulose (CMC) 103 % of control

CCCCN(C)N=Nc1ccccc1C(N)=O
inactive: dose: 89.0 mg/kg/injection, schedule: Q01DX009 (ip), vehicle: Klucel (hydroxypropylcellulose) (HPC) 108 % of control | dose: 89.0 mg/kg/injection, schedule: Q01DX009 (ip), vehicle: other 108 % of control | dose: 133.0 mg/kg/injection, schedule: Q01DX009 (ip), vehicle: Klucel (hydroxypropylcellulose) (HPC) 122 % of control | dose: 133.0 mg/kg/injection, schedule: Q01DX009 (ip), vehicle: other 122 % of control | dose: 177.0 mg/kg/injection, schedule: Q01DX001 (ip), vehicle: other 97 % of control | [4] 115 % of control | [7] 108 % of control | dose: 266.0 mg/kg/injection, schedule: Q01DX001 (ip), vehicle: other 113 % of control | dose: 300.0 mg/kg/injection, schedule: Q01DX009 (ip), vehicle: Klucel (hydroxypropylcellulose) (HPC) 111 % of control and 124 % of control | dose: 300.0 mg/kg/injection, schedule: Q01DX009 (ip), vehicle: other 95 % of control and 90 % of control | dose: 400.0 mg/kg/injection, schedule: Q01DX001 (ip), vehicle: other 101 % of control

C1CCC(C2CCCC[N-]2)[N-]C1.C1CCC(C2CCCC[N-]2)[N-]C1.C1CCC(C2CCCC[N-]2)[N-]C1.[Fe+6] (configuration not stated)
inactive: dose: 10.0 mg/kg/injection, schedule: Q01DX001 (ip), vehicle: saline 98 % of control | dose: 20.0 mg/kg/injection, schedule: Q01DX001 (ip), vehicle: saline 104 % of control

CC(C)[CH2][Sn](=[O])[OH]
inactive: dose: 50.0 mg/kg/injection, schedule: Q01DX009 (ip), vehicle: saline 96 % of control | dose: 100.0 mg/kg/injection, schedule: Q01DX009 (ip), vehicle: saline 100 % of control | dose: 200.0 mg/kg/injection, schedule: Q01DX009 (ip), vehicle: saline 100 % of control

O=C(Nc1c(Oc2ccc(Cl)cc2Cl)ccc(Cl)c1S(=O)(=O)O)Nc1c(Oc2ccc(Cl)cc2Cl)ccc(Cl)c1S(=O)(=O)O
inactive: [1] 101 % of control | [2] 97 % of control | dose: 200.0 mg/kg/injection, schedule: Q04DX003 (ip), vehicle: saline 95 % of control

C=C1C(=O)OC2C3=C(C)C(=O)CC3C3(C)CC3C12 (configuration not stated)
inactive: dose: 50.0 mg/kg/injection, schedule: Q01DX001 (ip), vehicle: water 103 % of control

CCOC(=O)C(=O)C1CCCC1=O (configuration not stated)
inactive: dose: 100.0 mg/kg/injection, schedule: Q01DX009 (ip), vehicle: saline with Tween-80 102 % of control | dose: 100.0 mg/kg/injection, schedule: Q04DX003 (ip), vehicle: saline with Tween-80 92 % of control | dose: 200.0 mg/kg/injection, schedule: Q01DX009 (ip), vehicle: saline with Tween-80 98 % of control | dose: 200.0 mg/kg/injection, schedule: Q04DX003 (ip), vehicle: saline with Tween-80 100 % of control | dose: 400.0 mg/kg/injection, schedule: Q01DX009 (ip), vehicle: saline with Tween-80 96 % of control | dose: 400.0 mg/kg/injection, schedule: Q04DX003 (ip), vehicle: saline with Tween-80 94 % of control

CN(CC(=O)NCCCCCCCCCCNC(=O)CN(C)C(=O)OCc1ccccc1)C(=O)OCc1ccccc1
inactive: dose: 10.0 mg/kg/injection, schedule: Q01DX Z (ip), vehicle: saline 94 % of control | dose: 30.0 mg/kg/injection, schedule: Q01DX Z (ip), vehicle: saline 88 % of control | dose: 100.0 mg/kg/injection, schedule: Q01DX Z (ip), vehicle: saline 91 % of control | dose: 300.0 mg/kg/injection, schedule: Q01DX Z (ip), vehicle: saline 88 % of control

CC[C@@]1(O)c2cc3n(c(=O)c2CO[C@H]1O)Cc1cc2ccccc2nc1-3
inactive: dose: 0.5 mg/kg/injection, schedule: Q01DX Z (ip), vehicle: saline 96 % of control | dose: 1.0 mg/kg/injection, schedule: Q01DX Z (ip), vehicle: saline 94 % of control | dose: 2.0 mg/kg/injection, schedule: Q01DX Z (ip), vehicle: saline 97 % of control | dose: 4.0 mg/kg/injection, schedule: Q01DX015 (ip), vehicle: saline 104 % of control | dose: 4.0 mg/kg/injection, schedule: Q01DX Z (ip), vehicle: saline 97 % of control | dose: 8.0 mg/kg/injection, schedule: Q01DX007 (ip), vehicle: other 108 % of control | dose: 8.0 mg/kg/injection, schedule: Q01DX012 (ip), vehicle: saline 95 % of control | dose: 8.0 mg/kg/injection, schedule: Q01DX015 (ip), vehicle: saline 106 % of control | dose: 16.0 mg/kg/injection, schedule: Q01DX007 (ip), vehicle: other 112 % of control | dose: 16.0 mg/kg/injection, schedule: Q01DX012 (ip), vehicle: saline 108 % of control
active: dose: 16.0 mg/kg/injection, schedule: Q01DX015 (ip), vehicle: saline 150 % of control

COc1ccc(NCCOc2ccccc2Br)cc1
inactive: dose: 100.0 mg/kg/injection, schedule: Q01DX009 (ip), vehicle: other 96 % of control | [7] 96 % of control | dose: 400.0 mg/kg/injection, schedule: Q01DX009 (ip), vehicle: other 104 % of control

Cc1ccc(C)c(Nc2cc(=O)[nH]c(=O)[nH]2)c1
inactive: dose: 100.0 mg/kg/injection, schedule: Q04DX003 (ip), vehicle: gum acacia 93 % of control | dose: 200.0 mg/kg/injection, schedule: Q04DX003 (ip), vehicle: gum acacia 91 % of control | dose: 400.0 mg/kg/injection, schedule: Q04DX003 (ip), vehicle: gum acacia 87 % of control
